Measurements published in US20110245164A1 (INDIANA UNIVERSITY RESEARCH AND TECHNOLOGY, published 2011).
Non-standard residues stand in square brackets, D forms with d. Residues, ends and D or L forms follow the SMILES beside them. Groups on a side chain read outwards from the residue. Phe(4-NH2) = Nc1ccc(C[C@H](N)C(=O)O)cc1; Nleu = CC(C)CNCC(=O)O

Tests used:
in vitro = in vitro ADME; conditions: plasma
[1] = Dipeptide half life on IGF1 dipeptide extended (p-NH2-F)A19 amide derivatives in PBS (HPLC); assay type: physicochemical; conditions: buffer, pH 7.4
Method: IGF-1 peptides was measured to determine the impact of the peptide sequence or heteroduplex on the dipeptide cleavage.
Accordingly, the IGF1A chain alone was determined to be a good model for the study of pro-drug half life on IGF1 B:A (Y^B16L^B17) derivative peptides. […] For simplicity, prodrug half lives were determined using only the IGF1 A chain in the absence of the B chain. The half lives of each propeptide was determined as described in Example 5.
The IGF^B16B17 derivative peptide prodrugs were incubated in PBS, pH 7.4 at 37° C. and at predetermined time intervals an aliquot was taken and further degradation was quenched with 0.1% TFA and the aliquot was subjected to analytical HPLC analysis. Peaks a and b, representing the prodrug and active forms of the IGF^B16B17 derivative peptide were identified with LC-MS and quantified by integration of peak area an HPLC. FIGS. 9A-9C show the output of an HPLC analysis of the degradation of the IGF^B16B17 derivativepeptide prodrug: IGF1A(Ala)^6,7,11,20(Aib-Pro-pNH-F)^19. Aliquots were taken at 20 minutes (FIG. 9A), 81 minutes (FIG. 9B) and 120 minutes (FIG. 9C) after beginning the incubation of the prodrug in PBS.

CC[C@H](C)[C@H](NC(=O)CN)C(=O)N[C@H](C(=O)N[C@@H](CC(=O)O)C(=O)N[C@@H](CCC(=O)O)C(=O)N[C@@H](C)C(=O)N[C@@H](C)C(=O)N[C@@H](Cc1ccccc1)C(=O)N[C@@H](CCCNC(=N)N)C(=O)N[C@@H](CO)C(=O)N[C@@H](C)C(=O)N[C@@H](CC(=O)O)C(=O)N[C@@H](CC(C)C)C(=O)N[C@@H](CCCNC(=N)N)C(=O)N[C@@H](CCCNC(=N)N)C(=O)N[C@@H](CC(C)C)C(=O)N[C@@H](CCC(=O)O)C(=O)N[C@@H](CCSC)C(=O)N[C@@H](Cc1ccc(NC(=O)CN(CC(C)C)C(=O)[C@H](N)CCCCN)cc1)C(=O)N[C@@H](C)C(=O)N[C@@H](C)C(N)=O)C(C)C [dK N-isobutyl Gly] (H-GIVDEAAFRSADLRRLEM[Phe(4-NH2)]([Nleu-dK])AA-NH2)
half-life (in vitro): 4.1 h | half-life [1]: 4.4 h
